In US12233060B2, “Inhibitors of Ataxia-Telangiectasia Mutated and Rad3-related protein kinase (ATR) for use in methods of treating cancer” (THE INSTITUTE OF CANCER RESEARCH: ROYAL CANCER HOSPITAL, priority 2016, dated 2025):

What was measured:
[1] = system: Arid1a+/+ and Arid1a−/− mouse embryonic stem (ES) cells; assay: Clonogenic survival of mouse Arid1a isogenic ES cells; assay type: cell-based; conditions: p<0.001 ANOVA
Method: FIG. 2. In vitro ARID1A/ATR synthetic lethality. A. Chemical structure of VX-970. B. Western blot of ARID1A in human ARID1A isogenic HCT116 cells. C. Image of colonies in 6 well-plate clonogenic assay. HCT116 ARID1A isogenic (^+/+ and ^−/−) cell lines were exposed to increasing concentrations of the VE-821 (0, 0.1, 1 uM) and VX-970 (0, 0.01, 0.05 uM) for 14 days. D and E. Dose response clonogenic survival curve of HCT116 ARID1A isogenic (^+/+ and ^−/−) cell lines exposed to increasing concentrations of the VE-821 and VX-970 for 14 days. Error bars represent SD from triplicate experiments, ANOVA p-value of <0.0001. F. Area under curve (AUC) box whisker comparison plot for human tumor cell lines exposed to VX-970 for five days. ARID1A wild type tumor cell lines (n=15) were compared to ARID1A mutant cell lines (n=9). Student's t-test p=0.00594. G. Dose response clonogenic survival curve of mouse Arid1a isogenic ES cell lines. Experiment was performed as per (C). Error bars represent SD from triplicate experiments, ANOVA p value of <0.0001. H. Western blot of Arid1a protein expression in mouse ES Arid1a isogenic cells. […]
Short-term survival assays were performed in 384-well plates. […] Drug was added 24 h after seeding and cells were continuously exposed to the drug for five days, after which cell viability was estimated using CellTitre-Glo luminescence (Promega). […] Colonies were counted manually. […]

[2] = system: HCT116 ARID1A isogenic cells and TOV21G cells; assay: Anaphase bridge analysis; assay type: cell-based, human; conditions: 0.5 uM, 8 hours
Method: FIG. 5. ATRi effect on cell cycle progression, chromosomal instability, DNA damage and apoptosis. A. Barchart illustrating G2/M fraction in HCT116 ARID1A^+/+ and ARID1A^−/− cells synchronized in G1/early S phase by double thymidine block and released into fresh media containing DMSO or VX-970 (500 nM). The percentage of cells in G2/M was measured by FACS following PI staining. […] Cells were stained with DAPI. A minimum of 50 anaphases were scored in 3 biological replicate experiments. *p=0.023, Student's t-test. C. Bar chart illustrating frequency of anaphase bridges in TOV21G cells exposed to VX-970 (0.5 uM) or DMSO for 8 hours prior to fixation. Experiment performed as for (B). p=0.006 Student's t-test. D. Mitotic spread images from HCT116 ARID1A^+/+ and ARID1A^−/− cells following exposure to either DMSO or VX-970 (1 uM). Scale bar represents 20 um. E. Bar chart illustrating extent of chromosomal abnormalities in HCT116 ARID1A^+/+ and ARID1A^−/− cells exposed to VX-970 (1 uM). *p<0.05, Student's t-test. F. Western blot illustrating γH2AX in HCT116 ARID1A^+/+ and ARID1A^−/− cells exposed to VX-970 (0.5 uM) for the indicated time prior to cell lyses. G. Bar chart illustrating apoptotic fraction in cells exposed to increasing concentrations of VX-970 for 24 hours. Experiment as per FIG. 3I. H. Western blot illustrating PARP cleavage in HCT116 ARID1A^+/+ and ARID1A^−/− cells exposed to VX-970. […]

CNCc1ccc(-c2cc(-c3nc(-c4ccc(S(=O)(=O)C(C)C)cc4)cnc3N)on2)cc1 [VX-970, 5-[4-(Isopropylsulfonyl)phenyl]-3-(3-{4-[(methylamino)methyl]phenyl}-1,2-oxazol-5-yl)-2-pyrazinamine] was tested, and the “selective targeting of Arid1a−/− ES cells in clonogenic assays” value [1] was “selectively targeted Arid1a^−/− ES cells” and the “frequency of anaphase bridges” value [2] was “increased level of anaphase bridges”.
